The numbers were not newly measured in patent publication US20220370613A1, “PHARMACEUTICAL COMPOSITION” (Renown Pharma Inc., priority 2019, published 2022), which cites them from elsewhere.

Usually pKa stands for the negative logarithm of the acid dissociation constant.

Data set [1] relates to "on-off" fluctuations in Parkinson's disease. The settings on record: subcutaneous injection.
Another data set concerns "switched on" response. The settings on record: sublingual administration.

As for `CN1CCc2cccc3c2[C@H]1Cc1ccc(O)c(O)c1-3` [apomorphine], the pKa is reported as 8.9. For the same compound, in data set [1], the duration of effect was 45 to 90 min and the time to effect is 5 to 15 min. The “mean time to onset of effect” value in the data set on "switched on" response is reported as “approximately 30 minutes”.
